Data taken from ChEMBL document CHEMBL2176970, “Discovery and optimization of a series of 3-(3-phenyl-3H-imidazo[4,5-b]pyridin-2-yl)pyridin-2-amines: orally bioavailable, selective, and potent ATP-independent Akt inhibitors” (J Med Chem, 2012).
pIC50: −log10 of the molar value. Activity calls are given as the source filed them. The rule behind the calls is not given here.

What was measured:
[1] = molecular target: T1, RAC-alpha serine/threonine-protein kinase (Homo sapiens, UniProt P31749); assay: Inhibition of Akt1 in human A2780 cells assessed as phosphorylation of Akt at S473 after 2 hrs by Western Blot analysis; format: cell-based
[2] = molecular target: T1, RAC-alpha serine/threonine-protein kinase; assay: Inhibition of Akt1 in human AN3CA cells assessed as phosphorylation of Akt at S473 after 2 hrs by Western Blot analysis; format: cell-based, AN3-CA
[3] = molecular target: T1, RAC-alpha serine/threonine-protein kinase; assay: Inhibition of Akt 1 in human A2780 cells assessed as phosphorylation of Akt at T308 after 2 hrs by Western Blot analysis; format: cell-based
[4] = molecular target: T1, RAC-alpha serine/threonine-protein kinase; assay: Inhibition of Akt 1 in human AN3CA cells assessed as phosphorylation of Akt at T308 after 2 hrs by Western Blot analysis; format: cell-based, AN3-CA
[5] = molecular target: T1, RAC-alpha serine/threonine-protein kinase; assay: Inhibition of Akt1 in human A2780 cells assessed as phosphorylation PRAS40 at T246 after 2 hrs by Western Blot analysis; format: cell-based
[6] = molecular target: T1, RAC-alpha serine/threonine-protein kinase; assay: Inhibition of Akt1 in human AN3CA cells assessed as phosphorylation PRAS40 at T246 after 2 hrs by Western Blot analysis; format: cell-based, AN3-CA
A2780 = assay: Antiproliferative activity against human A2780 cells after 72 hrs by MTS assay; format: functional, cell-based; conditions: A2780, 72 h
AN3-CA = assay: Antiproliferative activity against human AN3CA cells after 72 hrs by MTS assay; format: functional, cell-based
[7] = molecular target: T2, RAC-beta serine/threonine-protein kinase (Homo sapiens, UniProt P31751); assay: Binding affinity to Akt2 (1 to 481) expressed in Sf9 cells assessed as change in melting temperature at 15 uM
[8] = molecular target: T3, RAC-gamma serine/threonine-protein kinase (Homo sapiens, UniProt Q9Y243); assay: Binding affinity to Akt3 (1 to 479) expressed in Sf9 cells assessed as change in melting temperature at 15 uM
[9] = molecular target: T1, RAC-alpha serine/threonine-protein kinase; assay: Inhibition of Akt1 (1 to 480) expressed in Sf9 cells using biotin-GRPRTSSFAEG as substrate after 20 mins by Alpha-screen assay
[10] = molecular target: T2, RAC-beta serine/threonine-protein kinase; assay: Inhibition of Akt2 (1 to 481) expressed in Sf9 cells using biotin-GRPRTSSFAEG as substrate after 20 mins by Alpha-screen assay
[11] = molecular target: T3, RAC-gamma serine/threonine-protein kinase; assay: Inhibition of Akt3 (1 to 479) expressed in Sf9 cells using biotin-GRPRTSSFAEG as substrate after 20 mins by Alpha-screen assay
[12] = molecular target: T1, RAC-alpha serine/threonine-protein kinase; conditions: Sf9
[13] = molecular target: T1, RAC-alpha serine/threonine-protein kinase; assay: Inhibition of Akt1 (1 to 480) expressed in Sf9 cells by indirect affinity mass spectrometry assay
[14] = molecular target: T1, RAC-alpha serine/threonine-protein kinase; conditions: Sf9; remark: listed apart in the source
Description: Binding affinity to Akt1 (144 to 480) expressed in Sf9 cells assessed as fluorescence quenching by Trp fluorescence assay

[15] = molecular target: T1, RAC-alpha serine/threonine-protein kinase; conditions: Sf9; remark: listed apart in the source
Description: Binding affinity to Akt1 (1 to 480) expressed in Sf9 cells assessed as fluorescence quenching by Trp fluorescence assay

[16] = molecular target: T1, RAC-alpha serine/threonine-protein kinase; conditions: Sf9; remark: listed apart in the source
Description: Binding affinity to Akt1 (1 to 480) expressed in Sf9 cells assessed as change in melting temperature at 15 uM

[17] = molecular target: T1, RAC-alpha serine/threonine-protein kinase; conditions: Sf9; remark: listed apart in the source
Description: Binding affinity to Akt1 (144 to 480) expressed in Sf9 cells assessed as change in melting temperature at 15 uM

T3 sequence (Q9Y243 whole entry): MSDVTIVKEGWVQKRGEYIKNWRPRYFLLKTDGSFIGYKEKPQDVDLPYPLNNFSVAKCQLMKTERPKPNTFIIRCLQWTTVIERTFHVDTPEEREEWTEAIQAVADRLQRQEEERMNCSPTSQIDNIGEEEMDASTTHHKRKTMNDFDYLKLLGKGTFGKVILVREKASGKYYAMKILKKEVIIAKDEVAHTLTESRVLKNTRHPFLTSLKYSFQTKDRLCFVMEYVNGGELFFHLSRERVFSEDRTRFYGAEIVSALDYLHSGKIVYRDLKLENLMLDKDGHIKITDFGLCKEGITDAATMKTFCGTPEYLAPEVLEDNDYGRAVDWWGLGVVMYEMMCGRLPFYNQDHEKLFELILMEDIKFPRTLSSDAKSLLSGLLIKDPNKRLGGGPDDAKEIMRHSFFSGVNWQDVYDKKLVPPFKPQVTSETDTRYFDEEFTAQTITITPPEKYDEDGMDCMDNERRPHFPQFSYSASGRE
T1 sequence (P31749 whole entry): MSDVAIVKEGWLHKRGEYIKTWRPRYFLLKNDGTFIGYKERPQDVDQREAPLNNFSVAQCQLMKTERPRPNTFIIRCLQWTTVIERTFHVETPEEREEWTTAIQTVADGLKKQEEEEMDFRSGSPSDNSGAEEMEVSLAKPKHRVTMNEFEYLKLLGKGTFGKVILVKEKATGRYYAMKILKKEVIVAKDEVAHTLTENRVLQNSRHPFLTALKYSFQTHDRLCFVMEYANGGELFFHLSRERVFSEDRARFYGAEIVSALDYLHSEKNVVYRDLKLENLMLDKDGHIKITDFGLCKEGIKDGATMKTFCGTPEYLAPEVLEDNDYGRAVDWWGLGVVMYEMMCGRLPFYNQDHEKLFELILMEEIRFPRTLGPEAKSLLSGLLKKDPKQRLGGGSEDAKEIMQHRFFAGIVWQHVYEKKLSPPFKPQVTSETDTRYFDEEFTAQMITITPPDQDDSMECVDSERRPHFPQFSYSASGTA
T2 sequence (P31751 whole entry): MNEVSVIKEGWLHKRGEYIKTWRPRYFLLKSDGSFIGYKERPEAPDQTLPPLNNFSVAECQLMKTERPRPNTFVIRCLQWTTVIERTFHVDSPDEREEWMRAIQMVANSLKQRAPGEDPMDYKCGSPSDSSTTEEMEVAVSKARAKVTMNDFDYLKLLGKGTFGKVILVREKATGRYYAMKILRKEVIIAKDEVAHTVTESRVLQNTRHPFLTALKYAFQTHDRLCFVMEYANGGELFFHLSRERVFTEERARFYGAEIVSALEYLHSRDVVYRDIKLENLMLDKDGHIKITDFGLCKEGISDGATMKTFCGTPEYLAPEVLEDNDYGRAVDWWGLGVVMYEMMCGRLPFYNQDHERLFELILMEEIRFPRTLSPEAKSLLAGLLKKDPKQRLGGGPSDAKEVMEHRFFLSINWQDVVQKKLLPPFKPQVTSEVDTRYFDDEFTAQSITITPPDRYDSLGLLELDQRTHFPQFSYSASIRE

pIC50 [1] | pIC50 [2] | pIC50 [3] | pIC50 [4] | pIC50 [5] | pIC50 [6] | pIC50 (A2780) | ΔTm [7] | pIC50 [9] | pIC50 [10] | pIC50 [11] | ΔTm [12] | SMILES | pIC50 (AN3-CA) | other results
6.72 | 7.02 | 6.16 | 6.47 | 5.89 | 5.68 | 5.00 | 5.7 °C | 7.33 | 7.10 | 6.18 | 11.1 °C | Nc1ncccc1-c1nc2ccc(-c3cccnc3)nc2n1-c1ccc(CNC(=O)c2cccc(F)c2)cc1 | 5.00 | ΔTm [8]: 1.6 °C
7.19 | 7.16 | 7.26 | 7.29 | 6.32 | 5.60 | 5.03 | 5.1 °C | 7.30 | 7.60 | 6.41 | 10.8 °C | Nc1ncccc1-c1nc2ccc(-c3cccnc3)nc2n1-c1ccc(CC(=O)Nc2ccccc2)cc1 | 5.06 | ΔTm [8]: 1.8 °C
– | – | – | – | – | – | – | – | – | – | – | 1.9 °C | CC(C)(C)c1ccc(-n2c(-c3cccnc3N)nc3cccnc32)cc1 | – | –
– | – | – | – | – | – | – | – | < 3.52 | – | – | – | COc1ccccc1Cn1c(-c2ccncc2)nc2cc(Br)cnc21 | – | pIC50 [13]: 5.23; deltaTm [12]: inactive
– | – | – | – | – | – | – | – | < 3.52 | – | – | – | CC(C)(C)c1ccc(-n2c(-c3ccncc3)nc3cccnc32)cc1 | – | deltaTm [12]: inactive
– | – | – | – | – | – | – | – | – | – | – | 4.7 °C | Nc1ncccc1-c1nc2cccnc2n1-c1ccc(CNC(=O)Cc2ccccc2)cc1 | – | –
– | – | – | – | – | – | – | – | < 3.52 | – | – | – | CC(C)(C)c1cccc(-n2c(-c3cccnc3N)nc3cccnc32)c1 | – | deltaTm [12]: inactive
– | – | – | – | – | – | – | – | 5.06 | – | – | – | NCc1ccc(-n2c(-c3cccnc3)nc3cccnc32)cc1 | – | deltaTm [12]: inactive
– | – | – | – | – | – | – | – | 5.89 | – | – | 3.7 °C | CC(=O)Nc1ccc(-n2c(-c3cccnc3N)nc3cccnc32)cc1 | – | –
7.17 | < 5.00 | 6.74 | < 5.00 | 6.39 | < 5.00 | 5.02 | 6.4 °C | 7.62 | 7.46 | 6.41 | 11 °C | Nc1ncccc1-c1nc2ccc(-c3ccccc3)nc2n1-c1ccc(CNC(=O)c2ccccc2)cc1 | 5.26 | ΔTm [8]: 1.8 °C
– | – | – | – | – | – | – | – | 7.85 | – | – | 7.3 °C | Nc1ncccc1-c1nc2cccnc2n1-c1ccc(NC(=O)c2ccccc2)cc1 | – | –
– | – | – | – | – | – | – | – | 6.13 | – | – | 4.1 °C | Nc1ccc(-n2c(-c3cccnc3N)nc3cccnc32)cc1 | – | –
– | – | – | – | – | – | – | – | – | – | – | – | Cc1n[nH]c2ccc(-c3cncc(OC[C@@H](N)Cc4ccccc4)c3)cc12 | – | ΔTm [14]: 2.12 °C; deltaTm [15]: inactive; deltaTm [16]: inactive; ΔTm [17]: 1.3 °C
– | – | – | – | – | – | – | – | 4.24 | – | – | – | COc1ccccc1Cn1c(-c2cccnc2N)nc2cccnc21 | – | deltaTm [12]: inactive
– | – | – | – | – | – | – | – | < 3.52 | – | – | 0.9 °C | CC(C)(C)c1ccc(-n2c(-c3cccnc3N)nc3cc(Br)cnc32)cc1 | – | –
> 7.92 | 5.60 | 6.77 | < 5.00 | 5.51 | < 5.00 | 4.19 | 3 °C | 7.57 | 6.89 | < 5.00 | 8.1 °C | Nc1ncccc1-c1nc2cc(Br)cnc2n1-c1ccc(CNC(=O)c2ccccc2)cc1 | 4.22 | ΔTm [8]: 1 °C
6.89 | 6.96 | 6.85 | 6.77 | 6.04 | 6.08 | 5.80 | 6.7 °C | 7.82 | 7.33 | 6.77 | 12.8 °C | CC(=O)Nc1cccc(-c2ccc3nc(-c4cccnc4N)n(-c4ccc(CNC(=O)c5ccccc5)cc4)c3n2)c1 | 5.82 | ΔTm [8]: 2.5 °C
6.92 | 7.05 | 7.82 | 6.59 | 6.85 | 5.82 | 5.48 | 6.7 °C | 7.77 | 7.62 | 5.60 | 11.1 °C | CC(=O)Nc1cccc(-c2ccc3nc(-c4cccnc4N)n(-c4ccc(CC(=O)Nc5cccc(F)c5)cc4)c3n2)c1 | 5.77 | ΔTm [8]: 1.5 °C
– | 5.43 | 6.68 | 5.03 | 5.68 | < 5.00 | 4.19 | 3.3 °C | 6.96 | 6.10 | < 4.00 | 6 °C | Nc1ncccc1-c1nc2cc(C3CCCC3)cnc2n1-c1ccc(CNC(=O)c2ccccc2)cc1 | 4.48 | pIC50 [13]: 4.92; deltaTm [8]: inactive
7.47 | 5.85 | 7.17 | 5.38 | 6.13 | 5.49 | 4.64 | 4 °C | – | 7.49 | 6.43 | 9.7 °C | Nc1ncccc1-c1nc2ccc(-c3cccnc3)nc2n1-c1ccc(CNC(=O)c2ccccc2)cc1 | 4.89 | ΔTm [8]: 1 °C
– | – | – | – | – | – | – | – | < 3.52 | – | – | – | COc1ccccc1Cn1c(-c2cccnc2N)nc2cc(Br)cnc21 | – | deltaTm [12]: inactive

SMILES | pIC50 [1] | pIC50 [2] | pIC50 [3] | pIC50 [4] | pIC50 [5] | pIC50 [6] | pIC50 (A2780) | ΔTm [7] | pIC50 [9] | pIC50 [10] | pIC50 [11] | ΔTm [12] | pIC50 (AN3-CA) | other results
Nc1ncccc1-c1nc2cc(-c3cccnc3)cnc2n1-c1ccc(CNC(=O)c2cccc(F)c2)cc1 | 7.27 | 7.34 | 6.70 | 7.31 | 6.24 | 6.09 | 4.72 | 5.4 °C | 8.28 | 7.57 | – | 9.4 °C | 4.89 | ΔTm [8]: 1.5 °C
Nc1ncccc1-c1nc2cccnc2n1-c1ccc(CNCc2ccccc2)cc1 | – | – | – | – | – | – | – | – | 6.59 | – | – | 4.9 °C | – | –
CC(=O)NCc1ccc(-n2c(-c3cccnc3N)nc3cccnc32)cc1 | – | – | – | – | – | – | – | – | 6.09 | – | – | 2.3 °C | – | –
CC(C)(C)c1ccc(-n2c(-c3cccnc3)nc3cccnc32)cc1 | – | – | – | – | – | – | – | – | 3.73 | – | – | – | – | deltaTm [12]: inactive
Nc1ncccc1-c1nc2cc(-c3ccccc3)cnc2n1-c1ccc(CNC(=O)c2ccccc2)cc1 | 6.48 | 6.80 | 6.17 | 5.96 | 5.74 | 6.01 | < 4.00 | 1.2 °C | 7.48 | 4.29 | < 4.00 | 5.61 °C | < 4.00 | deltaTm [8]: inactive
Nc1ncccc1-c1nc2cccnc2n1-c1cccc(CNC(=O)c2ccccc2)c1 | – | – | – | – | – | – | – | – | 4.89 | – | – | – | – | deltaTm [12]: inactive
